The subject of one experiment is Lipoxygenase. Kind of experiment: Ex-Vivo Measurement of Lipoxygenase Inhibition in Orally Dosed Rats (LTB4). The settings on record: p.o. Also on record: species or system rat (male Sprague Dawley). How it is done: 2. Ex-Vivo Measurement of Lipoxygenase Inhibition in Orally Dosed Rats
Male Sprague Dawley rats (Charles River) weighing between 180 g and 200 g were dosed orally with an invention compound (1-25 mg/kg, po) suspended in 0.5% Tween 80®. After an interval of 3 or 6 hours, the rats were anesthetized with metofane (n=4/group) and blood collected in heparinized tubes. White blood cell counts and differentials were made. One ml of blood from each animal was placed in a 5 ml plastic tube in a shaker bath at 37° C. A23187 at a final concentration of 10 μM was added to the blood and the blood vortexed and incubated for 15 min at […] with gentle shaking. Incubation was terminated by vortexing sample and centrifuging immediately at 1200 xG for 15 min at 4° C. The plasma was transferred to 15 ml plastic tubes each containing 8 ml of methanol to precipitate protein followed by vortexing. The samples were stored at -70 ° C. overnight and the next day the samples were centrifuged at 800 xG for 15 min to pellet the precipitate. The samples were dried in a Savant SpeedVac Concentrator Model SVC 200H and reconstituted to the original volume with cold RIA or ELISA buffer. The reconstituted samples were stored at -70° C. until assayed. The assay for LTB4 was performed according to the directions of the [^3 H]RIA kit or ELISA kit (Seragen). The total metabolite level in 1 ml of blood is calculated and reported as ng/10^6 neutrophils. Significance is determined by a one-way analysis of variance with LSD comparisons to control (p≤0.05).

In another experiment the test system is LTB4 Synthesis. Briefly: Reverse Passive Arthus Reaction (pleurisy), LTB4 in pleural exudate. The conditions noted are these: p.o. In kind it is in vivo, rat (male Lewis). How it is done:
3. Reverse Passive Arthus Reaction
A reverse passive Arthus reaction is induced in the pleural cavity of male Lewis rats (150-200 g; fasted overnight prior to use) by the intravenous administration of bovine serum albumin (BSA; 4 mg/0.2 ml) followed 30 minutes later by the injection of rabbit anti-BSA (1 mg/0.2 ml; lyophilized IgG fraction; Organon Teknika, West Chester, Pa.) into the right pleural space under halothane anesthesia. Drugs or vehicle (0.5% Tween-80) control are administered orally in a volume of 1 ml/100 g body weight at 1 hour prior to the anti-BSA. Animals are sacrificed at either the time of peak eicosanoid production (i.e. 5 minutes after anti-BSA for immunoreactive TxB2, 10 minutes for immunoreactive LTB4, 20 minutes for immunoreactive LTC4) or at the time of peak neutrophil infiltration (4 hours after anti-BSA) by CO2 inhalation. The pleural cavity is then exposed., the fluid exudate removed by gentle vacuum aspiration and the volume of exudate is recorded. For the determination of cellular infiltration, the pleural cavity is rinsed with 3 ml of 0.1% EDTA in sterile saline, and the recovered wash is pooled with the exudate. Cell number is determined on a model ZBI Coulter counter. For determination of eicosanoid production, undiluted pleural exudate is microfuged and the supernatant is extracted with ethanol (8-10 times volume). Extracts are either stored at -20° C., or are evaporated to dryness under a stream of N2 and reconstituted in radioimmunoassay (RIA) buffer.
Eicosanoids are quantitated by RIA according to the procedure specified by the RIA kit manufacturer (Advanced Magnetics, Cambridge, Mass.). Briefly, 100 μl of ^3 H-labeled eicosanoid and 100 μl of specific antibody are sequentially added to 100 μl of extracted pleural exudate in BGG-phosphate buffer which contains 0.01M phosphate, 0.1% bovine gamma globulin and 0.1% sodium azide at pH 7.0. Antibody-bound eicosanoid is separated from unbound eicosanoid by the addition of 750 μl of dextran (0.4%)-coated charcoal (Norit A) containing 0.1% sodium azide. The mixture is centrifuged at 2000 RPM at 5° C. for 15 minutes to pellet the charcoal and adsorbed unbound eicosanoid. Antibody-bound labeled eicosanoid is quantitated by counting in a liquid scintillation counter, and is correlated to concentration by a standard curve.

Experiment [1] has as its system LT-dependent bronchoconstriction. Kind of experiment: Inhibition of Bronchoconstriction in Guinea Pigs Induced by Exogenously Administered Antigen. In kind it is in vivo, guinea pig (male). The conditions noted are these: Cavia porcellus, 5 min, 5 min post-antigen challenge; for inhibition in vivo at 10 mg/kg: iv, 10 mg/kg i.v. How it is done:
4. Inhibition of Brochoconstriction in Guinea Pigs Induced by Exogenously Administered Antigen
Male guinea pigs (Charles River, Wilmington, Mass.) were sensitized 3-4 weeks prior to antigen challenge by administration of 2 i.m. injections of ovalbumin, 1 into each hind limb (35 mg total). Sensitized animals (500-600 g) were fasted overnight prior to experimentation. Conscious animals were then dosed p.o. with drug or vehicle alone (0.5% Tween 80 in H2 O) at the indicated times prior to antigen challenge, or anesthetized animals were dosed i.v. with drug or vehicle alone (DMSO) 5 min prior to antigen challenge. Animals were anesthetized by urethane (2.8 g/kg i.p.). A carotid artery and jugular vein were cannulated to allow for the monitoring of blood pressure and the administration of drugs, respectively. The trachea was then cannulated and connected to a Harvard Apparatus rodent ventilator (S. Natick, Mass.). Spontaneous respiration was abolished by the administration of succinylcholine (2.5 mg/kg i.v.). The animals were then ventilated with room air at a rate of 65 breaths per min. Airway inflation pressure was measured using a Statham pressure transducer (Gould Instruments, Cleveland, Ohio) connected to the tracheal cannula via a side-arm and recorded on a Grass Instruments recorder (Quincy, Mass.). The tidal volume (approximately 10 cc/kg) was adjusted to give a baseline inflation pressure of 8-10 cm H2 O at end inspiration. Animals were then allowed 20 min to stabilize.
Following the stabilization period, animals were given i.v. injections of pyrilamine (5 mg/kg), propranolol (0.1 mg/kg) and indomethacin (10 mg/kg) at 15, 10 and 5 min, respectively, prior to antigen challenge. This pretreatment results in an LT-dependent bronchoconstriction following antigen challenge, which was accomplished by i.v. administration of ovalbumin (10 mg/kg). Only one bronchoconstriction per animal was induced. End-inspiratory inflation pressure (in cm H2 O over baseline) was measured at 5 min post-antigen challenge. A mean value and standard error for the % inhibition of control bronchoconstriction in each drug-treated group was then calculated.

Where [2] appears, read: 10 mg/kg, pretreatment period 6 hr.

Turning to `Cc1oc(-c2ccccc2)nc1COc1cccc(CN(O)C(N)=O)c1` [Example 1, 1-Hydroxy-1-[3-(5-methyl-2-phenyl-oxazol-4-ylmethoxy)-benzyl]-urea], the “% Inhibition of LTB4” value in the experiment with Lipoxygenase (25 mg/kg, pretreatment period 3 hr) worked out at 86%. Also, the “% Inhibition LTB4 Synthesis” value in the experiment with LTB4 Synthesis (25 mg/kg) was found to be 79%.
Consider `NC(=O)N(O)Cc1cccc(OCc2csc(-c3ccccc3)n2)c1` [Example 5, 1-Hydroxy-1-[3-(2-phenyl-thiazol-4-ylmethoxy)-benzyl]-urea], for which the “% Inhibition of LTB4” value with Lipoxygenase (setting [2]) worked out at 80%. Also, the “% Inhibition LTB4 Synthesis” value in the experiment with LTB4 Synthesis (10 mg/kg) worked out at 43%. The inhibition in vivo at 25 mg/kg in experiment [1] (po, 25 mg/kg p.o.) is 29%.
In the case of `NC(=O)N(O)Cc1cccc(OCc2csc(-c3ccc(Cl)cc3)n2)c1` [Example 6, 1-Hydroxy-1-[3-[2-(4-chloro-phenyl)-thiazol-4-ylmethoxy]-benzyl]-urea], in the experiment with Lipoxygenase (setting [2]), the “% Inhibition of LTB4” value is listed as 67%. For the same compound, at 10 mg/kg the inhibition in vivo in experiment [1] was 70%.
For `Cc1oc(-c2ccc(F)cc2)nc1COc1cccc(CN(O)C(N)=O)c1` [Example 9, 1-[3-[2-(4-fluorophenyl)-5-methyl-oxazol-4-ylmethoxy]-benzyl]-1-hydroxy-urea], in the experiment on Lipoxygenase (setting [2]), the “% Inhibition of LTB4” value was 50%. Besides, the “% Inhibition LTB4 Synthesis” value with LTB4 Synthesis (10 mg/kg) was found to be 27%. Besides, the inhibition in vivo at 10 mg/kg in experiment [1] came to 65%.
On to `Cc1oc(-c2ccccc2)nc1COc1cc(F)cc(CN(O)C(N)=O)c1` [Example 13, 1-[3-Fluoro-5-(5-methyl-2-phenyl-oxazol-4-ylmethoxy)-benzyl]-1-hydroxy-urea], for which the “% Inhibition of LTB4” value in the experiment on Lipoxygenase (5 mg/kg, pretreatment period 6 hr) is 52%. Besides, the “% Inhibition LTB4 Synthesis” value with LTB4 Synthesis (10 mg/kg) stood at 17%. The same compound displayed an inhibition in vivo at 10 mg/kg in experiment [1] of 29%.

What is called inhibition in vivo is the share of the control response that was lost under treatment.

The values are drawn from patent publication US5468760A, “Aralkyl-N-hydroxyureas as inhibitors of 5-lipoxygenase and oxidation of low density lipoprotein” (American Home Products Corporation, priority 1993, dated 1995).
